Results reported in ChEMBL document CHEMBL5584309, “Discovery of Novel Mcl-1 Inhibitors with a 3-Substituted-1H-indole-1-yl Moiety Binding to the P1-P3 Pockets to Induce Apoptosis in Acute Myeloid Leukemia Cells” (J Med Chem, 2024).

Assays:
HL-60 = assay: Antiproliferative activity against human HL-60 cells assessed as growth inhibition measured after 72 hrs by CCK-8 assay; assay type: functional, cell-based; settings: HL-60, 72 h
[1] = biological target: T1, Induced myeloid leukemia cell differentiation protein Mcl-1 (Homo sapiens, UniProt Q07820); assay: Binding affinity to Mcl-1 (unknown origin) pre-incubated for 30 mins followed by addition FAM-peptide further incubated for 20 mins by fluorescence polarization-based binding assay
T1 sequence (Q07820 whole entry): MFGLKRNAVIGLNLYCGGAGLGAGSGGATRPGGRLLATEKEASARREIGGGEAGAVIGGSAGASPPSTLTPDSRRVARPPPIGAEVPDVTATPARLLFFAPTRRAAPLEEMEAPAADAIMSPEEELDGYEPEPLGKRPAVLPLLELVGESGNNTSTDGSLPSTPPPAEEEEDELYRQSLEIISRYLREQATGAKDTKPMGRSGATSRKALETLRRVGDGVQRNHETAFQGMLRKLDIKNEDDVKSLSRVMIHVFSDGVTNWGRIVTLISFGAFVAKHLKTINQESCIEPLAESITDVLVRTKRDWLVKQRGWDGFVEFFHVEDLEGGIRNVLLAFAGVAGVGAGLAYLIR

Bcl-2-related protein A1 = biological target: T2, Bcl-2-related protein A1 (Homo sapiens, UniProt Q16548); assay: Binding affinity to Bfl-1 (unknown origin) pre-incubated for 30 mins followed by addition FAM-peptide further incubated for 20 mins by fluorescence polarization-based binding assay
T2 sequence (Q16548 whole entry): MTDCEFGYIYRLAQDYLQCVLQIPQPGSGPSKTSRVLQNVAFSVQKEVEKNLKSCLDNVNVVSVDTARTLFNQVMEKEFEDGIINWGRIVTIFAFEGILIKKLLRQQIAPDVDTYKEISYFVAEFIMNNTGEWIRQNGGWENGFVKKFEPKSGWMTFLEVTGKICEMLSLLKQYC

Bcl-2-like protein 1 = Bcl-2-like protein 1 (Homo sapiens, UniProt Q07817); assay: Binding affinity to Bcl-xL (unknown origin) pre-incubated for 30 mins followed by addition FAM-peptide further incubated for 20 mins by fluorescence polarization-based binding assay
Bcl-2-like protein 1, sequence (Q07817 whole entry): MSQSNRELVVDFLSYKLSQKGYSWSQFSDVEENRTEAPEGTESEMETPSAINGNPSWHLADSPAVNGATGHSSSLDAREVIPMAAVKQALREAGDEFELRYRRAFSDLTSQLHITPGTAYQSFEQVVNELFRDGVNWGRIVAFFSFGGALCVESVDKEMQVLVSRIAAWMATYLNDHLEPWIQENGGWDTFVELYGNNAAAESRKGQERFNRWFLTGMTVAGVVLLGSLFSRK

[2] = biological target: Apoptosis regulator Bcl-2 (Homo sapiens, UniProt P10415); assay: Binding affinity to Bcl-2 (unknown origin) pre-incubated for 30 mins followed by addition FAM-peptide further incubated for 20 mins by fluorescence polarization-based binding assay
Apoptosis regulator Bcl-2, sequence (P10415 whole entry): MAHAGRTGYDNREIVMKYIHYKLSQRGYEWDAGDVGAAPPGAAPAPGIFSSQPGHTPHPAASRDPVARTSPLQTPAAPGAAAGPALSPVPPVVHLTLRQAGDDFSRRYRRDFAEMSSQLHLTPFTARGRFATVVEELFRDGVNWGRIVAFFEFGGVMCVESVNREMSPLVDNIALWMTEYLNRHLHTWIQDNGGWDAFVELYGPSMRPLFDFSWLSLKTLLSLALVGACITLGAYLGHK

[3] = Metabolic stability in rat liver microsomes assessed as half life by LC-MS/MS analysis; assay type: ADME, Microsome; settings: liver microsomes
[4] = biological target: T1, Induced myeloid leukemia cell differentiation protein Mcl-1; assay: Binding affinity to human MCL-1 measured by competition against fluorescently labelled BH3 - Bid measured after 6 hrs by fluorescent polarization assay

Structure (SMILES) | IC50 (HL-60) | Ki ([1]; read-out: Ki) | also measured
Cc1cc(OCCCc2c(C(=O)O)n(CCN3CCOCC3)c3c(-c4ccccc4Cn4cc(CCNC(=O)c5ccoc5)c5ccccc54)cccc23)cc(C)c1Cl | 29.9 µM | 0.058 µM | 
Cc1cc(OCCCc2c(C(=O)O)n(CCN3CCOCC3)c3c(-c4ccccc4Cn4cc(CCNC(=O)c5ccccc5C(F)(F)F)c5ccccc54)cccc23)cc(C)c1Cl | 14.3 µM | 0.056 µM | 
Cc1cc(OCCCc2c(C(=O)O)n(CCN3CCOCC3)c3c(-c4ccccc4Cn4cc(CCNS(=O)(=O)c5ccc(F)cc5)c5ccccc54)cccc23)cc(C)c1Cl | 8.91 µM | 0.048 µM | 
Cc1cc(OCCCc2c(C(=O)O)n(CCN3CCOCC3)c3c(-c4ccccc4Cn4cc(CCNC(=O)c5c(C)cccc5F)c5ccccc54)cccc23)cc(C)c1Cl | 14.2 µM | 0.043 µM | 
COc1ccccc1OCc1c(-c2cccc3c(CCCOc4cc(C)c(Cl)c(C)c4)c(C(=O)O)[nH]c23)c(C(=O)NCC2CC2)nn1C | 28.8 µM | 0.24 µM | 
Cc1cc(OCCCc2c(C(=O)O)[nH]c3c(-c4c(C(=O)NCC5CC5)nn(C)c4Cn4cc(C)c5ccccc54)cccc23)cc(C)c1Cl | 10.5 µM | 0.1 µM | 
Cc1cc(OCCCc2c(C(=O)O)n(CCN3CCOCC3)c3c(-c4ccccc4Cn4cc(CCNC(=O)c5ccc(Cl)cc5)c5ccccc54)cccc23)cc(C)c1Cl | 7.58 µM | 0.045 µM | IC50 (Bcl-2-related protein A1): > 10 µM; IC50 (Bcl-2-like protein 1): > 100 µM; IC50 [2]: > 100 µM
O=C(O)Cc1ccccc1Nc1c(Cl)cccc1Cl [DICLOFENAC] |  |  | half-life [3]: 11.7 min
COc1ccc2c(ccn2Cc2ccccc2-c2cccc3c(CCCOc4cc(C)c(Cl)c(C)c4)c(C(=O)O)n(CCN4CCOCC4)c23)c1 | 16.1 µM | 0.15 µM | 
Cc1cc(OCCCc2c(C(=O)O)n(CCN3CCOCC3)c3c(-c4ccccc4Cn4cc(CCNC(=O)/C=C/c5ccc(Cl)c(Cl)c5)c5ccccc54)cccc23)cc(C)c1Cl | > 50 µM |  | Ki [1]: Not Active
Cc1cc(OCCCc2c(C(=O)O)n(CCN3CCOCC3)c3c(-c4ccccc4Cn4cc(CCNC(=O)c5ccncc5F)c5ccccc54)cccc23)cc(C)c1Cl | 12.6 µM | 0.055 µM | 
COc1cccc2c1ccn2Cc1ccccc1-c1cccc2c(CCCOc3cc(C)c(Cl)c(C)c3)c(C(=O)O)n(CCN3CCOCC3)c12 | 14.1 µM | 0.095 µM | 
Cc1cc(OCCCc2c(C(=O)O)[nH]c3c(-c4c(C(=O)NCC5CC5)nn(C)c4COc4ccc(OC(F)(F)F)cc4)cccc23)cc(C)c1Cl | 32.2 µM | 0.26 µM | 
Cc1cc(OCCCc2c(C(=O)O)n(CCN3CCOCC3)c3c(-c4ccccc4Cn4cc(CCNC(=O)c5ccc(OC(F)(F)F)cc5)c5ccccc54)cccc23)cc(C)c1Cl | 7.92 µM | 0.029 µM | IC50 (Bcl-2-related protein A1): > 10 µM; IC50 (Bcl-2-like protein 1): > 100 µM; IC50 [2]: > 100 µM
Cc1ccc2c(ccn2Cc2c(-c3cccc4c(CCCOc5cc(C)c(Cl)c(C)c5)c(C(=O)O)[nH]c34)c(C(=O)NCC3CC3)nn2C)c1 | 8.82 µM | 0.15 µM | 
Cc1cc(OCCCc2c(C(=O)O)n(CCN3CCOCC3)c3c(-c4ccccc4Cn4cc(CCNC(=O)CCC(F)(F)F)c5ccccc54)cccc23)cc(C)c1Cl | 12.8 µM | 0.098 µM | 
COc1ccc(OCc2c(-c3cccc4c(CCCOc5cc(C)c(Cl)c(C)c5)c(C(=O)O)[nH]c34)c(C(=O)N(C)CCNC(=O)OC(C)(C)C)nn2C)cc1 | > 50 µM | 0.26 µM | 
COc1ccc(OCc2c(-c3cccc4c(CCCOc5cc(C)c(Cl)c(C)c5)c(C(=O)O)[nH]c34)c(C(=O)NC3CCOCC3)nn2C)cc1 | 21.1 µM | 0.84 µM | 
COc1ccc(OCc2c(-c3cccc4c(CCCOc5cc(C)c(Cl)c(C)c5)c(C(=O)O)[nH]c34)c(C(=O)Nc3ccccc3F)nn2C)cc1 | 28.3 µM | 0.39 µM | 
COc1ccc(OCc2c(-c3cccc4c(CCCOc5cc(C)c(Cl)c(C)c5)c(C(=O)O)[nH]c34)c(C(=O)NCC3CC3)nn2C)cc1 | 30.5 µM | 0.22 µM | 
Cc1cc(OCCCc2c(C(=O)O)n(CCN3CCOCC3)c3c(-c4ccccc4Cn4cc(CCNC(=O)c5cccc(Br)c5)c5ccccc54)cccc23)cc(C)c1Cl | 12.3 µM | 0.087 µM | 
Cc1cc(OCCCc2c(C(=O)O)n(CCN3CCOCC3)c3c(-c4ccccc4Cn4cc(CCNC(=O)c5ccccc5Br)c5ccccc54)cccc23)cc(C)c1Cl | 16.8 µM | 0.068 µM | 
Cc1cc(OCCCc2c(C(=O)O)n(CCN3CCOCC3)c3c(-c4ccccc4Cn4cc(C)c5ccccc54)cccc23)cc(C)c1Cl | 15.7 µM | 0.089 µM | 

Structure (SMILES) | IC50 (HL-60) | Ki ([1]; read-out: Ki) | also measured
CC1(C)CC[C@@H](OC(=O)/C=C/c2ccccc2)C2C(C=O)C(C=O)C[C@H](O)[C@H]21 (some centres not stated) |  |  | Ki [4]: 0.3 µM
Cc1cc(OCCCc2c(C(=O)O)n(CCN3CCOCC3)c3c(-c4ccccc4Cn4cc(CCNC(=O)c5ccc(Br)cc5)c5ccccc54)cccc23)cc(C)c1Cl | 30.7 µM | 0.051 µM | 
Cc1cc(OCCCc2c(C(=O)O)[nH]c3c(-c4ccccc4CN(C)c4ccccc4)cccc23)cc(C)c1Cl | 31.9 µM | 0.65 µM | 
Cc1cc(OCCCc2c(C(=O)O)n(CCN3CCOCC3)c3c(-c4ccccc4Cn4cc(CCNC(=O)c5ccc(C=O)cc5)c5ccccc54)cccc23)cc(C)c1Cl | 35.1 µM | 0.027 µM | 
Cc1cc(OCCCc2c(C(=O)O)n(CCN3CCOCC3)c3c(-c4ccccc4Cn4cc(CCNC(=O)CC(F)(F)F)c5ccccc54)cccc23)cc(C)c1Cl | 18.3 µM | 0.06 µM | 
Cc1cc(OCCCc2c(C(=O)O)[nH]c3c(-c4c(C(=O)NCC5CC5)nn(C)c4COc4ccc(C=O)cc4)cccc23)cc(C)c1Cl | 34.9 µM | 0.18 µM | 
Cc1cc(OCCCc2c(C(=O)O)n(CCN3CCOCC3)c3c(-c4ccccc4Cn4cc(CCNC(=O)c5ccncn5)c5ccccc54)cccc23)cc(C)c1Cl | 28.4 µM | 0.12 µM | 
Cc1ccc2c(ccn2Cc2ccccc2-c2cccc3c(CCCOc4cc(C)c(Cl)c(C)c4)c(C(=O)O)n(CCN4CCOCC4)c23)c1 | 39.1 µM | 0.16 µM | 
COc1ccc(CN(C)C(=O)c2nn(C)c(COc3ccc(OC)cc3)c2-c2cccc3c(CCCOc4cc(C)c(Cl)c(C)c4)c(C(=O)O)[nH]c23)cc1 | 28 µM | 0.53 µM | 
Cc1cc(OCCCc2c(C(=O)O)n(CCN3CCOCC3)c3c(-c4ccccc4Cn4ccc5c(C)cccc54)cccc23)cc(C)c1Cl | 15.1 µM | 0.12 µM | 
Cc1cc(OCCCc2c(C(=O)O)n(CCN3CCOCC3)c3c(-c4ccccc4Cn4ccc5ccccc54)cccc23)cc(C)c1Cl | 21.2 µM | 0.15 µM | 
COc1ccc(OCc2c(-c3cccc4c(CCCOc5cc(C)c(Cl)c(C)c5)c(C(=O)O)[nH]c34)c(C(=O)NCC3CCOCC3)nn2C)cc1 | 35 µM | 0.49 µM | 
Cc1cc(OCCCc2c(C(=O)O)[nH]c3c(-c4c(C(=O)NCC5CC5)nn(C)c4Cn4cc(CCNC(=O)OC(C)(C)C)c5ccccc54)cccc23)cc(C)c1Cl | 19.3 µM | 0.15 µM | 
Cc1cc(OCCCc2c(C(=O)O)[nH]c3c(-c4c(C(=O)NCC5CC5)nn(C)c4COc4ccccc4)cccc23)cc(C)c1Cl | 47.8 µM | 0.34 µM | 
Cc1cc(OCCCc2c(C(=O)O)n(CCN3CCOCC3)c3c(-c4ccccc4Cn4cc(CCNC(=O)c5ccc(F)cc5)c5ccccc54)cccc23)cc(C)c1Cl | 7.96 µM | 0.037 µM | IC50 (Bcl-2-related protein A1): > 10 µM; IC50 (Bcl-2-like protein 1): > 100 µM; IC50 [2]: > 100 µM
CC(C)=CCC[C@]1(C)C=Cc2c(O)c3c(c(CC=C(C)C)c2O1)O[C@]12C(=C[C@@H]4C[C@H]1C(C)(C)O[C@@]2(C/C=C(/C)C(=O)O)C4=O)C3=O [GAMBOGIC ACID] |  |  | IC50 (Bcl-2-related protein A1): 0.5 µM; IC50 (Bcl-2-like protein 1): 0.5 µM; IC50 [2]: 0.16 µM
C=CC(=O)NCCc1cn(Cc2ccccc2-c2cccc3c(CCCOc4cc(C)c(Cl)c(C)c4)c(C(=O)O)n(CCN4CCOCC4)c23)c2ccccc12 | 31.6 µM | 0.19 µM | 
Cc1cc(OCCCc2c(C(=O)O)n(CCN3CCOCC3)c3c(-c4ccccc4Cn4cc(CCNCC(N)=O)c5ccccc54)cccc23)cc(C)c1Cl | > 50 µM | 1.2 µM | 
Cc1cc(OCCCc2c(C(=O)O)[nH]c3c(-c4ccccc4Cn4ccc5ccccc54)cccc23)cc(C)c1Cl | 44.1 µM | 0.24 µM | 
COc1cccc(OCc2c(-c3cccc4c(CCCOc5cc(C)c(Cl)c(C)c5)c(C(=O)O)[nH]c34)c(C(=O)NCC3CC3)nn2C)c1 | > 50 µM | 0.37 µM | 
Cc1ccccc1C(=O)NCCc1cn(Cc2ccccc2-c2cccc3c(CCCOc4cc(C)c(Cl)c(C)c4)c(C(=O)O)n(CCN4CCOCC4)c23)c2ccccc12 | 10.1 µM | 0.059 µM | 
Cc1cc(OCCCc2c(C(=O)O)[nH]c3ccccc23)cc(C)c1Cl | > 50 µM |  | 
